Patent US9839642B2, “Beta-tetrazolyl-propionic acids as metallo-beta-lactamase inhibitors” (priority 2014, dated 2017)

Columns and labels:
[1] = molecular target: NDM-1 (Klebsiella pneumoniae, UniProt C7C422); experiment: Enzyme activity: determination of IC50, fluorescence assay with CCF2-FA substrate; assay type: biochemical; conditions: enzyme 1 pM, CCF2-FA 1.25 μM, 2 hours at 25° C.; read-out: NDM1 IC50
Protocol: (§1) Enzyme Activity: Determination of IC50
(§2) The Class B enzyme activities were measured in the presence of a compound of the EXAMPLES as a test inhibitor in a fluorescence assay against a commercially available substrate consisting of a cephalosporin core linking 7-hydroxycoumarin to fluorescein (CCF2-FA; Life Technologies, Grand Island, N.Y.). The enzyme (NDM-1, IMP-1 or VIM-1) and the substrate were diluted in 100 mM KH2PO4 buffer (pH 7) containing 0.005% Tween-20 and 10 μM ZnSO4. In the assay, the final concentration of enzyme was 1 pM, 2 pM and 30 pM for NDM-1, IMP-1 and VIM-1, respectively, and the final concentration of CCF2-FA was 1.25 μM. The test inhibitor was dissolved in DMSO and diluted 1:50 in the assay, resulting in a final concentration range of 20 μM to 0.00063 μM. In a 384-well microplate, the test inhibitor was incubated with the metallo-β-lactamase enzyme and the substrate for 2 hours at 25° C. Fluorescence at 460 nm following excitation at 405 nm was measured. The IC50 value was determined from semi-logarithmic plots of enzyme inhibition versus inhibitor concentration, with a curve generated using a 4-parameter fit.

[2] = molecular target: VIM-1 (Pseudomonas aeruginosa, UniProt A0A0F7KYQ8); experiment: as above; assay type: biochemical; conditions: enzyme 30 pM, CCF2-FA 1.25 μM, 2 hours at 25° C.; read-out: VIM1 IC50
Protocol: as §1, §2

[3] = molecular target: IMP-1 (Serratia marcescens, UniProt P52699); experiment: as above; assay type: biochemical; conditions: enzyme 2 pM, CCF2-FA 1.25 μM, 2 hours at 25° C.; read-out: IMP1 IC50
Chain of IMP-1 (P52699 19-246, looked up, species assumed): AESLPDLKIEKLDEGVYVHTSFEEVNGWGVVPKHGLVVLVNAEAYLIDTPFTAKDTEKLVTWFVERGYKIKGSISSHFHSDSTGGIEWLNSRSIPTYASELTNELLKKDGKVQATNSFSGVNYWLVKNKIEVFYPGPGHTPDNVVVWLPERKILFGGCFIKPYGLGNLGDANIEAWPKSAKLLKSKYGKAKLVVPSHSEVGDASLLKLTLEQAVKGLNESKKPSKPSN
Protocol: as §1, §2

[4] = test system: Escherichia coli expressing NDM-1 (CLB30016); experiment: Antibiotic potentiation activity: synergistic concentration (MITC95) with imipenem, growth by OD600; assay type: cell-based; conditions: 95% inhibition of bacterial growth, strain CLB30016
Protocol: (§3) Antibiotic Potentiation Activity: Determination of Synergistic Concentration
(§4) The bacterial strains tested included the clinical strains Escherichia coli expressing NDM-1 (CLB30005, CLB30016), Serratia marcescens expressing IMP-1 (CL5741), and Klebsiella pneumoniae expressing VIM-1 (IHMA599644). Inhibitor activity was measured in the presence and absence of imipenem or ceftazidime in a 384-well microplate.
(§5) The clinical strains CLB30016, CL5741, and IHMA599644 were grown on trypticase soy agar containing 5% sheep's blood. The clinical strain CLB30005 was grown on Mueller Hinton broth agar containing 8 μg/ml imipenem. The bacteria on agar plates were incubated overnight at 35° C. with ambient humidity (achieved from an open pan of water inside the incubator). The following day, individual colonies from each clinical strain were picked and resuspended in 5 ml saline to attain an OD600 of 0.14, 0.11, 0.15 and 0.13, for CLB30005, CLB30016, CL5741 and IHMA599644, respectively. These were further diluted 1:100 into 1.1×CAMHB and used to inoculate the test wells as described below.
(§6) Imipenem in 10 mM 3-(N-morpholino)propanesulfonic acid (MOPS, pH 7) was stored in single use aliquots at −80° C. Test inhibitors were dissolved in DMSO and diluted 1:50 in the assay, resulting in a final concentration range of 200 μM to 0.195 μM. On the day of the assay, 4 μl of antibiotic was added to 45 μl of bacteria followed by 1 μl of test compound and mixed by pipetting and with an orbital shaker. The concentration of antibiotic used in the assay was 1 μg/ml or 4 μg/ml. Microplates were covered and incubated at 35° C. for 22 hours to 24 hours. At the end of the incubation, absorbance was determined using a spectrophotometer. The synergistic concentration of MBLI was determined by identifying the lowest concentration of test compound in the presence of a given concentration of antibiotic that was required to inhibit 95% of the growth of the bacteria.
(§7) Representative compounds of the present invention display a synergistic effect. For example, representative compounds of EXAMPLES 1-456 were determined to restore susceptibility to imipenem at concentrations of 200 μM or less.

[5] = test system: Serratia marcescens expressing IMP-1 (CL5741); experiment: as above; assay type: cell-based; conditions: 95% inhibition of bacterial growth, strain CL5741
Protocol: as §3, §4, §5, §6, §7

[6] = test system: Klebsiella pneumoniae expressing VIM-1 (IHMA599644); experiment: as above; assay type: cell-based; conditions: 95% inhibition of bacterial growth, strain IHMA599644
Protocol: as §3, §4, §5, §6, §7

Chain of NDM-1 (C7C422 29-270, looked up, species assumed): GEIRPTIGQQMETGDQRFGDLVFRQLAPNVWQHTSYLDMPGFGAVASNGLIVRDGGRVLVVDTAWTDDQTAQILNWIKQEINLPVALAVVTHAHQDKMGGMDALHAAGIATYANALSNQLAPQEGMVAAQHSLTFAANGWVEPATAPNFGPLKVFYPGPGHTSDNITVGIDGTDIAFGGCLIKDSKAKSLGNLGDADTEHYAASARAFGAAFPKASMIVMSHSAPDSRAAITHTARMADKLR

SMILES	IC50 [1]	IC50 [2]	IC50 [3]	NDM1 EC30016 MITC95 [4]	IMP1 SM5741 MITC95 [5]	VIM1 KP599644 MITC95 [6]
CC(C)CC(C(=O)O)[C@H](Cc1ccc(S(C)(=O)=O)cc1)c1nn[nH]n1 (stereo partly drawn) [Example 51, CAN-4-methyl-2-((S)-2-(4-(methylsulfonyl)phenyl)-1-(2H-tetrazol-5-yl)ethyl)pentanoic acid]	180 nM	25 nM	540 nM	75 µM	25 µM	150 µM
CCC[C@H](C(=O)O)[C@H](Cc1ccc(C)cc1)c1nn[nH]n1 [Example 52, (S)-2-((S)-1-(2H-tetrazol-5-yl)-2-(p-tolyl)ethyl)pentanoic acid]	87 nM	10 nM	680 nM	18.8 µM	18.8 µM	25 µM
Cc1ccc(C[C@H](c2nn[nH]n2)[C@H](CC(C)C)C(=O)O)cc1 [Example 53, (S)-2-((S)-1-(2H-tetrazol-5-yl)-2-(p-tolyl)ethyl)-4-methylpentanoic acid]	37 nM	5.8 nM	89 nM	18.8 µM	4.7 µM	75 µM
CCC[C@H](C(=O)O)[C@H](Cc1ccc(CN)cc1)c1nnn[nH]1 [Example 54, (S)-2-((S)-2-(4-(aminomethyl)phenyl)-1-(1H-tetrazol-5-yl)ethyl)pentanoic acid]	1600 nM	40 nM	13000 nM	18.8 µM	75 µM	12.5 µM
CCC[C@H](C(=O)O)[C@H](Cc1ccc(CN2CCNCC2)cc1)c1nnn[nH]1 [Example 55, (S)-2-((S)-2-(4-(piperazin-1-ylmethyl)phenyl)-1-(1H-tetrazol-5-yl)ethyl)pentanoic acid]	120 nM	19 nM	810 nM	6.2 µM	18.8 µM	25 µM
CC(C)C[C@H](C(=O)O)[C@H](Cc1ccc(CN)c(F)c1)c1nnn[nH]1 [Example 56, (S)-2-((S)-2-(4-(aminomethyl)-3-fluorophenyl)-1-(1H-tetrazol-5-yl)ethyl)-4-methylpentanoic acid]	520 nM	10 nM	1700 nM	9.4 µM	47 µM	18.8 µM
CCC[C@@H](C(=O)O)[C@H](Cc1ccc(-c2ccc(N3CCNCC3)nc2)cc1)c1nnn[nH]1 [Example 57, (2R)-2-[(1S)-2-[4-(6-piperazin-1-ylpyridin-3-yl)phenyl]-1-(1H-tetrazol-5-yl)ethyl]pentanoic acid]	650 nM	170 nM	2800 nM	200 µM	150 µM	>200 µM
CC(C)[C@H](C(=O)O)[C@H](Cc1ccc(C2=CCNC2)cc1)c1nnn[nH]1 [Example 60, (2S,3S)-4-(4-(2,5-dihydro-1H-pyrrol-3-yl)phenyl)-2-isopropyl-3-(1H-tetrazol-5-yl)butanoic acid]	56 nM	1.9 nM	760 nM	3.1 µM	9.4 µM	4.7 µM
O=C(O)[C@@H](C1CCCC1)[C@H](Cc1ccc(C2=CCNC2)cc1)c1nnn[nH]1 [Example 61, (2S,3S)-2-cyclopentyl-4-(4-(2,5-dihydro-1H-pyrrol-3-yl)phenyl)-3-(1H-tetrazol-5-yl)butanoic acid]	32 nM	1.9 nM	150 nM	2.3 µM	3.9 µM	6.2 µM
